# According to the supplement of paper PMC10307832:
# Compound: O=C(O)C(Cc1ccccc1[N+](=O)[O-])=NNc1nc(-c2ccc(Cl)c(Cl)c2)cs1 (mixture of isomers) [4EGI-1] + Nc1nc2[nH]cc(CCc3ccc(C(=O)N[C@@H](CCC(=O)O)C(=O)O)cc3)c2c(=O)[nH]1 [Pemetrexed] (partner 0.2 µM)
# Assay: relative viability (nuclei count vs DMSO), 5 days (fraction); higher = more cells survive
# Conditions: first compound 0.5 µM
# Procedure, shortened: (§1)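 A single step with final 0.05% Triton X-100, 1% formaldehyde and 1 ug/ml Hoechst fixed the cells and stained nuclei 5 days after treatment. Lung cancer cell lines in 1536-well plates had been treated by pin tool the day after seeding with one drug alone or a fixed anchor-drug dose plus five library-drug doses (not always all listed) in √10 steps, and nuclei were counted on 4× images. Relative viability is the ratio of nuclei in treated wells to nuclei in vehicle wells, taken as the median of duplicate plates.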
row,Cell Line,relative viability
1,LU99A,0.177
2,LXF-289,0.874
3,NCI-H23,0.819
4,NCI-H322M,0.576
5,NCI-H441,0.257
6,NCI-H460,0.0637
7,NCI-H520,0.674
8,NCI-H596,0.535
9,NCI-H647,0.198
10,NCI-H838,0.247
11,NCI-H1355,0.967
12,NCI-H1395,0.878
13,NCI-H1437,0.335
14,NCI-H1650,0.369
15,NCI-H1651,0.599
16,NCI-H1666,0.898

row,Cell Line,relative viability
1,NCI-H1734,0.403
2,NCI-H1755,0.424
3,NCI-H1793,1.09
4,NCI-H1915,0.513
5,NCI-H1944,0.683
6,NCI-H1975,0.298
7,NCI-H1993,0.529
8,NCI-H2009,1.01
9,NCI-H2023,0.263
10,NCI-H2085,0.979
11,NCI-H2087,0.651
12,NCI-H2126,0.793
13,NCI-H2170,0.259
14,NCI-H2228,0.377
15,NCI-H2347,0.438
16,NCI-H2405,1.1

# Same assay, conditions: first compound 1.581 µM
row,Cell Line,relative viability
1,LU99A,0.179
2,LXF-289,0.909
3,NCI-H441,0.249
4,NCI-H460,0.0738
5,NCI-H520,0.704
6,NCI-H596,0.458
7,NCI-H647,0.179
8,NCI-H838,0.255
9,NCI-H1355,0.927
10,NCI-H1437,0.312
11,NCI-H1651,0.576
12,NCI-H1666,0.889
13,NCI-H1734,0.433
14,NCI-H1755,0.428
15,NCI-H1793,0.905
16,NCI-H1915,0.407
17,NCI-H1975,0.274
18,NCI-H1993,0.569
19,NCI-H2009,1
20,NCI-H2085,0.954
21,NCI-H2087,0.648
22,NCI-H2126,0.712
23,NCI-H2170,0.256
24,NCI-H2228,0.472
25,NCI-H2347,0.407

# Same assay, conditions: first compound 5 µM
row,Cell Line,relative viability
1,LU99A,0.166
2,LXF-289,0.941
3,NCI-H23,0.77
4,NCI-H322M,0.643
5,NCI-H441,0.276
6,NCI-H460,0.0637
7,NCI-H520,0.677
8,NCI-H596,0.51
9,NCI-H647,0.206
10,NCI-H838,0.244
11,NCI-H1355,0.99
12,NCI-H1395,1.12
13,NCI-H1437,0.313
14,NCI-H1650,0.412
15,NCI-H1651,0.636
16,NCI-H1666,0.891

row,Cell Line,relative viability
1,NCI-H1734,0.464
2,NCI-H1755,0.417
3,NCI-H1793,1.1
4,NCI-H1915,0.451
5,NCI-H1944,0.668
6,NCI-H1975,0.287
7,NCI-H1993,0.541
8,NCI-H2009,1.04
9,NCI-H2023,0.223
10,NCI-H2085,0.915
11,NCI-H2087,0.637
12,NCI-H2126,0.681
13,NCI-H2170,0.247
14,NCI-H2228,0.367
15,NCI-H2347,0.452
16,NCI-H2405,1.3

# Same assay, conditions: first compound 15.81 µM
row,Cell Line,relative viability
1,LU99A,0.248
2,LXF-289,0.804
3,NCI-H23,0.551
4,NCI-H322M,0.618
5,NCI-H441,0.229
6,NCI-H460,0.0604
7,NCI-H520,0.655
8,NCI-H596,0.455
9,NCI-H647,0.156
10,NCI-H838,0.225
11,NCI-H1355,0.963
12,NCI-H1395,0.917
13,NCI-H1437,0.271
14,NCI-H1650,0.356
15,NCI-H1651,0.52
16,NCI-H1666,0.711

row,Cell Line,relative viability
1,NCI-H1734,0.441
2,NCI-H1755,0.561
3,NCI-H1793,0.659
4,NCI-H1915,0.488
5,NCI-H1944,0.586
6,NCI-H1975,0.283
7,NCI-H1993,0.518
8,NCI-H2009,0.951
9,NCI-H2023,0.164
10,NCI-H2085,0.646
11,NCI-H2087,0.637
12,NCI-H2126,0.596
13,NCI-H2170,0.256
14,NCI-H2228,0.338
15,NCI-H2347,0.414
16,NCI-H2405,1.05

# Same assay, conditions: first compound 50 µM
row,Cell Line,relative viability
1,LU99A,0.154
2,LXF-289,0.605
3,NCI-H23,0.274
4,NCI-H322M,0.377
5,NCI-H441,0.184
6,NCI-H460,0.0616
7,NCI-H520,0.123
8,NCI-H596,0.43
9,NCI-H647,0.087
10,NCI-H838,0.174
11,NCI-H1355,0.589
12,NCI-H1395,0.421
13,NCI-H1437,0.191
14,NCI-H1650,0.313
15,NCI-H1651,0.412
16,NCI-H1666,0.641

row,Cell Line,relative viability
1,NCI-H1734,0.362
2,NCI-H1755,0.351
3,NCI-H1793,0.304
4,NCI-H1915,0.263
5,NCI-H1944,0.331
6,NCI-H1975,0.21
7,NCI-H1993,0.481
8,NCI-H2009,0.805
9,NCI-H2023,0.101
10,NCI-H2085,0.621
11,NCI-H2087,0.481
12,NCI-H2126,0.537
13,NCI-H2170,0.265
14,NCI-H2228,0.164
15,NCI-H2347,0.413
16,NCI-H2405,0.285

# Compound: CN1CCN(CC1)C2=CC(=C(C=C2)NC3=NC=C4C(=N3)N(C5=CC=CC=C5C(=O)N4C)C)OC [XMD8-85] + CC1(C)CCC(c2ccc(Cl)cc2)=C(CN2CCN(c3ccc(C(=O)NS(=O)(=O)c4ccc(N[C@H](CCN5CCOCC5)CSc5ccccc5)c(S(=O)(=O)C(F)(F)F)c4)cc3)CC2)C1 [Navitoclax] (partner 0.5 µM)
# Assay: as above
# Conditions: first compound 0.08 µM
# Procedure, shortened: as §1
row,Cell Line,relative viability
1,LU99A,0.857
2,LXF-289,0.831
3,NCI-H23,0.878
4,NCI-H322M,1.21
5,NCI-H441,0.664
6,NCI-H460,1.07
7,NCI-H520,1.2
8,NCI-H596,1.04
9,NCI-H647,1.35
10,NCI-H838,1.15
11,NCI-H1355,1.06
12,NCI-H1395,1.09
13,NCI-H1437,1.16
14,NCI-H1650,1.15
15,NCI-H1651,1.09
16,NCI-H1666,0.932

row,Cell Line,relative viability
1,NCI-H1734,0.806
2,NCI-H1755,1.03
3,NCI-H1793,0.334
4,NCI-H1915,0.859
5,NCI-H1944,1.13
6,NCI-H1975,1.25
7,NCI-H1993,0.848
8,NCI-H2009,1.13
9,NCI-H2023,0.924
10,NCI-H2085,1.16
11,NCI-H2087,1.06
12,NCI-H2126,0.946
13,NCI-H2170,0.62
14,NCI-H2228,0.893
15,NCI-H2347,0.757
16,NCI-H2405,0.877

# Same assay, conditions: first compound 0.253 µM
row,Cell Line,relative viability
1,LU99A,0.689
2,LXF-289,0.867
3,NCI-H23,1.22
4,NCI-H322M,1.1
5,NCI-H441,0.565
6,NCI-H460,1.21
7,NCI-H520,1.19
8,NCI-H596,1.13
9,NCI-H647,1.19
10,NCI-H838,1.13
11,NCI-H1355,1.01
12,NCI-H1395,1.18
13,NCI-H1437,1.16
14,NCI-H1650,1.32
15,NCI-H1651,1
16,NCI-H1666,1

row,Cell Line,relative viability
1,NCI-H1734,0.888
2,NCI-H1755,1.04
3,NCI-H1793,0.348
4,NCI-H1915,0.817
5,NCI-H1944,1.1
6,NCI-H1975,1.12
7,NCI-H2009,1.12
8,NCI-H2023,1.08
9,NCI-H2085,1.11
10,NCI-H2087,1.01
11,NCI-H2126,0.935
12,NCI-H2170,0.682
13,NCI-H2228,0.929
14,NCI-H2347,0.852
15,NCI-H2405,1.09

# Same assay, conditions: first compound 0.8 µM
row,Cell Line,relative viability
1,LU99A,0.888
2,LXF-289,0.951
3,NCI-H23,0.686
4,NCI-H322M,1.34
5,NCI-H441,1.01
6,NCI-H460,1.14
7,NCI-H520,1.05
8,NCI-H596,1.07
9,NCI-H647,1.27
10,NCI-H838,1.16
11,NCI-H1355,0.977
12,NCI-H1395,1.3
13,NCI-H1437,1.13
14,NCI-H1650,1.29
15,NCI-H1651,1.13
16,NCI-H1666,0.865

row,Cell Line,relative viability
1,NCI-H1734,0.78
2,NCI-H1755,0.953
3,NCI-H1793,0.962
4,NCI-H1915,0.791
5,NCI-H1944,1.18
6,NCI-H1975,1.09
7,NCI-H1993,0.885
8,NCI-H2009,1.19
9,NCI-H2023,1.13
10,NCI-H2085,1.12
11,NCI-H2087,1.17
12,NCI-H2126,0.899
13,NCI-H2170,0.64
14,NCI-H2228,0.619
15,NCI-H2405,1.08

# Same assay, conditions: first compound 2.53 µM
row,Cell Line,relative viability
1,LU99A,0.892
2,LXF-289,0.974
3,NCI-H23,0.657
4,NCI-H322M,1.2
5,NCI-H441,1.11
6,NCI-H460,1.22
7,NCI-H520,1.06
8,NCI-H596,0.68
9,NCI-H647,1.14
10,NCI-H838,1.15
11,NCI-H1355,0.862
12,NCI-H1395,1.03
13,NCI-H1437,0.979
14,NCI-H1650,1.16
15,NCI-H1651,0.976
16,NCI-H1666,0.729

row,Cell Line,relative viability
1,NCI-H1734,0.952
2,NCI-H1755,0.984
3,NCI-H1793,1.27
4,NCI-H1915,0.771
5,NCI-H1944,1.16
6,NCI-H1975,1.09
7,NCI-H1993,0.968
8,NCI-H2009,1.08
9,NCI-H2023,0.997
10,NCI-H2085,1.04
11,NCI-H2087,1.05
12,NCI-H2126,0.897
13,NCI-H2170,0.675
14,NCI-H2228,0.81
15,NCI-H2347,0.809
16,NCI-H2405,0.662

# Same assay, conditions: first compound 8 µM
row,Cell Line,relative viability
1,LU99A,0.44
2,LXF-289,0.811
3,NCI-H23,0.544
4,NCI-H322M,1.05
5,NCI-H441,0.278
6,NCI-H460,0.415
7,NCI-H520,0.829
8,NCI-H596,0.377
9,NCI-H647,0.556
10,NCI-H838,0.536
11,NCI-H1355,0.804
12,NCI-H1395,1.02
13,NCI-H1437,0.591
14,NCI-H1650,0.439
15,NCI-H1651,0.849
16,NCI-H1666,0.727
17,NCI-H1734,0.504
18,NCI-H1755,0.838
19,NCI-H1793,0.351
20,NCI-H1915,0.622
21,NCI-H1944,1.12
22,NCI-H1975,0.532
23,NCI-H1993,0.766
24,NCI-H2009,0.717
25,NCI-H2085,0.789
26,NCI-H2087,0.772
27,NCI-H2126,0.839
